Common to all, as to assay type: cell-based
One data set has as its system GTP-bound KRAS. Description: RAS-binding domain pull down assay. Particulars: 400 of compound, 24 hour treatment. How it is done: KRAS activation was determined using the rat sarcoma (RAS) activation assay kit (Millipore, 17-218) in accordance with the manufacturer's guidelines. Cell lysates were prepared using Mg2^+ Lysis/wash buffer (MLB). Samples were incubated with 10 μg RAS assay reagent and incubated for 45 minutes at 4° C. Agarose beads were pelleted by centrifugation and washed 3 times with MLB. Agarose beads were re-suspended in loading buffer. Samples were subjected to western blotting, as previously described, and the blots were probed using anti-K-Ras antibody (sc-30, Santa Cruz Biotechnology (SANTA)).

Data set [1] deals with H2122 NSCLC cells. Briefly: Apoptosis analysis (Annexin V/PI flow cytometry). Conditions: H2122 cells, 0, 5, 10, 20 and 40 μM for 24 h. Here is the method: (§1) H2122, A549 and H358 NSCLC cells were plated in a 6-well plate with 2.0×10^5 cells/well and cultured overnight for attachment. After treatment with compound K017-0105 at 0, 5, 10, 20, 40 μM for 24 h, all cells were harvested by trypsinization and centrifuged at room temperature at 1000 rotations per minute (RPM) for 5 minutes. Cells were re-suspended in 100 μL 1× binding buffer and stained with Annexin V and propidium iodide (PI) staining solution for 15 minutes at room temperature in the dark. Apoptotic cells were quantitatively counted by a BD FACSAria III Flow Cytometer.
(§2) The ability of compound K017-0105 in inducing apoptosis in H2122, H358 and A549 NSCLC cells was examined. H2122, H358 and A549 NSCLC cells were treated with compound K017-0105 at different concentrations (0, 5, 10, 20 and 40 μM) for 24 h. These cells were stained with Annexin V-FITC/PI, and […] was detected by flow cytometry.
For orientation: Flow cytometry measures light scatter and fluorescence of single cells or particles in a stream.

Data set [2] deals with A549 NSCLC cells. Description: Apoptosis analysis (Annexin V/PI flow cytometry). Conditions: A549 cells, 0, 5, 10, 20 and 40 μM for 24 h. How it is done: as §1, §2
The test system of data set [3] is H358 NSCLC cells. Description: Apoptosis analysis (Annexin V/PI flow cytometry). Particulars: H358 cells, 0, 5, 10, 20 and 40 μM for 24 h. Here is the method:
as §1, §2

Data set [4] concerns H2122 NSCLC cells. Briefly: MTT cytotoxicity assay. How it is done: (§3) H2122, A549 and H358 non-small cell lung cancer (NSCLC) cells were purchased from ATCC and cultivated with Roswell Park Memorial Institute (RPMI) 1640 medium supplemented with 10% fetal bovine serum (Gibco, Big Cabin, Oklahoma, ME, USA), 100 units/mL penicillin and 100 μg/mL streptomycin (Gibco, Big Cabin, Oklahoma, ME, USA). All the cells were cultivated at 37° C. in a humidified atmosphere of 5% CO2.
(§4) Cells were seeded in a 96-well microplate with 3000, 4000 or 5000 cells/well confluence and cultured overnight for cell adhesion. Different concentrations of compound K017-0105 were added to the microplates, and the microplates were incubated for 24, 48 or 72 hours (h). Each concentration of compound K017-0105 was repeated in triplicate. 10 μL 3-(4,5-Dimethylthiazol-2-yl)-2,5-Diphenyltetrazolium Bromide (MTT) (5 mg/mL) solution was added to every well. After incubating for 4 h, 100 μL dimethyl sulfoxide (DMSO) was added to each well. After shaking for 15 minutes, the absorbance of the microplate was measured at 570 nm (absorbance) and 650 nm (reference) by a microplate reader (Tecan, Morrisville, N.C., USA).
On the technique in general: Formazan colour is commonly taken as a measure of viable cells.

Data set [5] deals with A549 NSCLC cells. Briefly: MTT cytotoxicity assay. Here is the method:
as §3, §4

Data set [6] has as its system H358 NSCLC cells. Description: MTT cytotoxicity assay. How it is done: as §3, §4
Data set [7] concerns normal CCD-19Lu lung cells. Description: MTT cytotoxicity assay. Conditions: 72 h. How it is done: as §4
The test system of the next data set is p-CRAF, p-Akt and p-ERK. Description: Western blot analysis of KRAS downstream signaling. Conditions: compared with untreated control cells. Here is the method: H2122, H358 and A549 NSCLC cells were rinsed with phosphate-buffered saline (PBS) and lysed in radioimmunoprecipitation assay (RIPA) lysis buffer (Beyotime, China) supplemented with a protease and phosphatase inhibitor cocktail (Thermo Scientific 78440, USA) once for 30 minutes. Cell lysates were centrifuged at 12,000 g for 10 minutes at 4° C. The supernatant was collected, and the protein concentration was calculated with a Bio-Rad detergent compatible (DC™) protein assay kit (Bio-Rad, Philadelphia, Pa., USA). 30 μg protein lysates were loaded and separated by 10% sodium dodecyl sulfate (SDS)-polyacrylamide gel electrophoresis and transferred to a nitrocellulose (NC) membrane. The membranes were incubated with the primary antibody (1:2000) and then with a fluorescence-conjugated secondary antibody (1:10000). Glyceraldehyde 3-phosphate dehydrogenase (GAPDH) was used as the loading control for normalization. The signal of the membranes was scanned with a LI-COR Odyssey Scanner (Belfast, Me., USA).
In general terms: In western blotting, separated proteins are transferred to a membrane and probed.

As usually defined, the IC50 is the concentration needed to halve the response being measured. With `O=C1Nc2ccccc2/C1=N\Nc1ccc(F)c(Cl)c1` [compound K017-0105], the “level of GTP-bound KRAS” value in the data set on GTP-bound KRAS (A549 NSCLC cells), with GTP-bound KRAS (H358 NSCLC cells) and in the data set with GTP-bound KRAS (H2122 NSCLC cells) was “inhibited” in each case. Also, the apoptosis entry in the data set with H2122 NSCLC cells [1], in the data set with A549 NSCLC cells [2] and with H358 NSCLC cells [3] was “significantly induced apoptosis” throughout. Also, the IC50 in the data set with H2122 NSCLC cells [4] (Homo sapiens, NCI-H2122, 72 h treatment, mean±SEM) turned out to be 7.19 ± 1.6 µM; in the data set with A549 NSCLC cells [5] (Homo sapiens, 72 h treatment, mean±SEM), 8.28 ± 2.64 µM; in the data set with H358 NSCLC cells [6] (Homo sapiens, NCI-H358, 72 h treatment, mean±SEM), 8.18 ± 1.29 µM. In addition, the cytotoxicity result with H2122 NSCLC cells [4] (MTT, 72 h) was “significant cytotoxicity”; in the data set on A549 NSCLC cells [5] (MTT, 72 h) it was “significant cytotoxicity”; in the data set on H358 NSCLC cells [6] (MTT, 72 h) it was “significant cytotoxicity”; in data set [7] it was “no cytotoxicity”. The “levels of p-CRAF, p-Akt and p-ERK” value in the data set on p-CRAF, p-Akt and p-ERK (A549 NSCLC cells) is listed as “decreased”; in the data set with p-CRAF, p-Akt and p-ERK (H358 NSCLC cells), “decreased”; in the data set on p-CRAF, p-Akt and p-ERK (H2122 NSCLC cells) it was “decreased”.
